{"source": "paper PMC10325900", "about": "“A conserved motif in the disordered linker of human MLH1 is vital for DNA mismatch repair and its function is diminished by a cancer family mutation” (Nucleic Acids Research, 2023)", "origin": "cited, not measured here", "tested_on": "yMLH1-yPMS1", "parameters": "method as in Torres et al. [100]", "settings": "25mer yeast peptide, molar ratio 0-250-500-1000 to yMLH1-PMS1, MLH1-PMS2 35 nM, 1 mM Mn2+; ref Torres et al. [100]; cited from earlier work"}
{"sequence": "KAKRQENKL VRI D ASQAKITSFLSS [25mer]", "values": [{"measurement": "effect of peptide on endonuclease activation of yMLH1-yPMS1", "value": "inhibiting endonuclease activit y"}]}
